Toxic doses and inconclusive results are not listed. Rule as the data show it: active = T/C of 150% or more; inactive = T/C below 125%.
System: L1210 leukemia ip in BDF1 mice, survival T/C
Test: NCI In Vivo Anticancer Drug Screen. Data for tumor model L1210 Leukemia (intraperitoneal) in B6D2F1 (BDF1) mice
Details: endpoint: mean survival time, higher = longer survival
Method in brief: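 Value reflects the ratio of survival in compound-treated mice to survival in vehicle-treated controls, with both groups carrying the same transplanted tumor.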

[1] = dose: 100.0 mg/kg/injection, schedule: Q01DX009 (ip), vehicle: Klucel (hydroxypropylcellulose) (HPC)
[2] = dose: 100.0 mg/kg/injection, schedule: Q04DX003 (ip), vehicle: Klucel (hydroxypropylcellulose) (HPC)
[3] = dose: 200.0 mg/kg/injection, schedule: Q04DX003 (ip), vehicle: Klucel (hydroxypropylcellulose) (HPC)
[4] = dose: 100.0 mg/kg/injection, schedule: Q01DX001 (ip), vehicle: Klucel (hydroxypropylcellulose) (HPC)
[5] = dose: 200.0 mg/kg/injection, schedule: Q01DX001 (ip), vehicle: Klucel (hydroxypropylcellulose) (HPC)
[6] = dose: 400.0 mg/kg/injection, schedule: Q01DX001 (ip), vehicle: Klucel (hydroxypropylcellulose) (HPC)
[7] = dose: 100.0 mg/kg/injection, schedule: Q04DX003 (ip), vehicle: saline
[8] = dose: 200.0 mg/kg/injection, schedule: Q04DX003 (ip), vehicle: saline
[9] = dose: 400.0 mg/kg/injection, schedule: Q04DX003 (ip), vehicle: saline

Measured: T/C

O=[N+]([O-])c1cc(Cl)cc2c1-c1c(Cl)cc(Cl)cc1C2O (stereo not drawn)
inactive: [1] 91 % of control | [2] 104 % of control | dose: 200.0 mg/kg/injection, schedule: Q01DX009 (ip), vehicle: Klucel (hydroxypropylcellulose) (HPC) 104 % of control | [3] 103 % of control | dose: 400.0 mg/kg/injection, schedule: Q04DX003 (ip), vehicle: Klucel (hydroxypropylcellulose) (HPC) 97 % of control

O=c1ncccn1Cc1ccccc1
inactive: [4] 112 % of control | [5] 98 % of control | [6] 107 % of control

O=C(c1ccccc1)C1C(c2ccccc2)N1Cc1ccccc1 (stereo not drawn)
inactive: dose: 50.0 mg/kg/injection, schedule: Q04DX003 (ip), vehicle: Klucel (hydroxypropylcellulose) (HPC) 102 % of control | [4] 87 % of control | [1] 100 % of control | [2] 98 % of control | [5] 88 % of control | [3] 98 % of control | [6] 95 % of control

CC(=O)Nc1nc(C)c(CCC#N)c(=O)[nH]1
inactive: dose: 100.0 mg/kg/injection, schedule: Q01DX009 (ip), vehicle: saline 101 % of control | [7] 96 % of control | dose: 200.0 mg/kg/injection, schedule: Q01DX009 (ip), vehicle: saline 101 % of control | [8] 91 % of control | dose: 400.0 mg/kg/injection, schedule: Q01DX009 (ip), vehicle: saline 95 % of control | [9] 101 % of control

CCOC(CN(Cc1ccc(OC)c(OCc2ccccc2)c1)S(=O)(=O)c1ccc(C)cc1)OCC
inactive: dose: 25.0 mg/kg/injection, schedule: Q01DX009 (ip), vehicle: water 102 % of control | dose: 50.0 mg/kg/injection, schedule: Q01DX009 (ip), vehicle: water 94 % of control | dose: 100.0 mg/kg/injection, schedule: Q01DX009 (ip), vehicle: water 97 % of control | dose: 200.0 mg/kg/injection, schedule: Q01DX009 (ip), vehicle: water 94 % of control | dose: 400.0 mg/kg/injection, schedule: Q01DX009 (ip), vehicle: water 96 % of control

NCC1OCOC2C(C(=O)O)OCOC12 (stereo not drawn)
inactive: dose: 50.0 mg/kg/injection, schedule: Q04DX002 (ip), vehicle: saline 101 % of control | dose: 100.0 mg/kg/injection, schedule: Q04DX002 (ip), vehicle: saline 96 % of control | dose: 200.0 mg/kg/injection, schedule: Q04DX002 (ip), vehicle: saline 101 % of control | dose: 400.0 mg/kg/injection, schedule: Q04DX002 (ip), vehicle: saline 96 % of control

COC(=O)C(N)=O
inactive: dose: 100.0 mg/kg/injection, schedule: Q01DX001 (ip), vehicle: steriod suspending solution 115 % of control | dose: 100.0 mg/kg/injection, schedule: Q04DX002 (ip), vehicle: Klucel (hydroxypropylcellulose) (HPC) 100 % of control | dose: 200.0 mg/kg/injection, schedule: Q01DX001 (ip), vehicle: steriod suspending solution 121 % of control | dose: 200.0 mg/kg/injection, schedule: Q04DX002 (ip), vehicle: Klucel (hydroxypropylcellulose) (HPC) 106 % of control | dose: 400.0 mg/kg/injection, schedule: Q01DX001 (ip), vehicle: steriod suspending solution 106 % of control | dose: 400.0 mg/kg/injection, schedule: Q04DX002 (ip), vehicle: Klucel (hydroxypropylcellulose) (HPC) 106 % of control

CCC(C)OC(=O)Nc1cccc(OC(=O)NC(C)C)c1 (stereo not drawn)
inactive: dose: 100.0 mg/kg/injection, schedule: Q04DX003 (ip), vehicle: saline with Tween-80 96 % of control | dose: 200.0 mg/kg/injection, schedule: Q04DX003 (ip), vehicle: saline with Tween-80 102 % of control | dose: 400.0 mg/kg/injection, schedule: Q04DX003 (ip), vehicle: saline with Tween-80 93 % of control

Cc1ccc(NC(N)=S)cc1C
inactive: dose: 25.0 mg/kg/injection, schedule: Q01DX009 (ip), vehicle: saline with Tween-80 105 % of control | dose: 50.0 mg/kg/injection, schedule: Q01DX009 (ip), vehicle: saline with Tween-80 90 % of control | dose: 100.0 mg/kg/injection, schedule: Q01DX009 (ip), vehicle: saline with Tween-80 86 % of control

O=C1NC(=O)C(CO)(c2ccccc2)N1 (stereo not drawn)
inactive: dose: 12.5 mg/kg/injection, schedule: Q04DX003 (ip), vehicle: saline 110 % of control | dose: 25.0 mg/kg/injection, schedule: Q04DX003 (ip), vehicle: saline 103 % of control | dose: 50.0 mg/kg/injection, schedule: Q04DX003 (ip), vehicle: saline 100 % of control | [7] 94 % of control | [8] 97 % of control | [9] 100 % of control

From PubChem BioAssay AID248 (DTP/NCI, 2004)
